Measurements: PubChem BioAssay AID192 (DTP/NCI, 2004)
“And” between values parts separate entries of the source, which are not always exact repeats. Equal entries are not always repeated. Toxic doses and inconclusive results are not listed. Rule for the calls: active = survival T/C of 150% or more; inactive = T/C below 125% in these data.

Test system: BDF1 mice, B16 melanoma ip, median survival T/C
Test: NCI In Vivo Anticancer Drug Screen. Data for tumor model B16 Melanoma (intraperitoneal) in B6D2F1 (BDF1) mice
Settings: endpoint: median survival time, higher = longer survival
Procedure, shortened: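 Compounds were tested in mice carrying transplantable tumors. Survival or tumor size was recorded, and each value is the treated-group measurement (T) divided by that of the vehicle-treated control group (C).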

[1] = dose: 6.25 mg/kg/injection, schedule: Q01DX009 (ip), vehicle: saline with Tween-80
[2] = dose: 6.25 mg/kg/injection, schedule: Q01DX009 (ip), vehicle: saline
[3] = dose: 12.5 mg/kg/injection, schedule: Q01DX009 (ip), vehicle: saline with Tween-80
[4] = dose: 12.5 mg/kg/injection, schedule: Q01DX009 (ip), vehicle: saline
[5] = dose: 25.0 mg/kg/injection, schedule: Q01DX009 (ip), vehicle: saline with Tween-80
[6] = dose: 25.0 mg/kg/injection, schedule: Q01DX009 (ip), vehicle: saline
[7] = dose: 50.0 mg/kg/injection, schedule: Q01DX009 (ip), vehicle: saline with Tween-80
[8] = dose: 50.0 mg/kg/injection, schedule: Q01DX009 (ip), vehicle: saline
[9] = dose: 100.0 mg/kg/injection, schedule: Q01DX009 (ip), vehicle: saline with Tween-80
[10] = dose: 100.0 mg/kg/injection, schedule: Q01DX009 (ip), vehicle: saline
[11] = dose: 50.0 mg/kg/injection, schedule: Q01DX009 (ip), vehicle: Klucel (hydroxypropylcellulose) (HPC)

Measured: T/C

CC(C)=CCNc1ncnc2c1ncn2C1OC(CO)C(O)C1O (stereo unspecified)
inactive: [1] 102 % of control | [2] 101 % of control | [3] 103 % of control | [4] 96 % of control | [5] 87 % of control and 107 % of control | [6] 103 % of control | [7] 87 % of control and 98 % of control | [8] 93 % of control | [9] 97 % of control | [10] 115 % of control

CC(OCc1ccccc1)C(NC(=O)OC(C)(C)C)C(=O)O (stereo unspecified)
inactive: [1] 97 % of control | [3] 98 % of control | [5] 102 % of control | [7] 88 % of control and 95 % of control

CCOC(=O)C(Br)C(=O)OCC
inactive: dose: 0.58 mg/kg/injection, schedule: Q04DX003 (ip), vehicle: saline 97 % of control | dose: 1.17 mg/kg/injection, schedule: Q04DX003 (ip), vehicle: saline 100 % of control | dose: 2.34 mg/kg/injection, schedule: Q04DX003 (ip), vehicle: saline 97 % of control | dose: 4.68 mg/kg/injection, schedule: Q04DX003 (ip), vehicle: saline 93 % of control

COC(=O)C1C(O)C(C)C(O)C(C)(O)C=C(C)C2=C3C(=C(C)C(=O)c4c(O)c(c(C)c(OC(C)=O)c43)NC(=O)C(C)=C/C=C\C(C)(O)C(O)C(C)C1O)OCO2 (stereo unspecified)
inactive: [11] 94 % of control | dose: 100.0 mg/kg/injection, schedule: Q01DX009 (ip), vehicle: Klucel (hydroxypropylcellulose) (HPC) 94 % of control | dose: 200.0 mg/kg/injection, schedule: Q01DX009 (ip), vehicle: Klucel (hydroxypropylcellulose) (HPC) 91 % of control

C#CCSC(=S)NNc1ccccc1
inactive: [9] 106 % of control | dose: 200.0 mg/kg/injection, schedule: Q01DX009 (ip), vehicle: saline with Tween-80 112 % of control

CCN(CC)CCCC(C)Nc1c2ccc(Cl)cc2nc2cc(Cl)ccc12 (stereo unspecified)
inactive: dose: 12.5 mg/kg/injection, schedule: Q01DX009 (ip), vehicle: Klucel (hydroxypropylcellulose) (HPC) 106 % of control | dose: 25.0 mg/kg/injection, schedule: Q01DX009 (ip), vehicle: Klucel (hydroxypropylcellulose) (HPC) 106 % of control | [11] 122 % of control

COCC1OC(OC2OCC3OC4(OCC(O)(C(C)OC)C5OCOC54)OC3C2OC)C(OC)C(O)C1OC1OC(C)C(OC)C(OC2OC(C)C3OC4(CC(O)C(OC5CC(OC6CC(C)([N+](=O)[O-])C(OC)C(C)O6)C(OC(=O)c6c(C)c(Cl)c(O)c(Cl)c6OC)C(C)O5)C(C)O4)OC3(C)C2O)C1O (stereo unspecified)
inactive: [2] 97 % of control | [4] 95 % of control | [6] 100 % of control | [8] 101 % of control

CC(C)NC(=O)c1ccc(N/N=[N+](/C)[O-])cc1
inactive: [5] 121 % of control | [7] 107 % of control | [9] 93 % of control and 111 % of control

CC1(c2ccc(Cl)cc2)OC(=O)C(=Cc2ccc([N+](=O)[O-])s2)C(=O)O1 (stereo unspecified)
inactive: [1] 92 % of control | [3] 87 % of control

C/C=C(\C)c1cc(=O)c2c(C)cc3c(c2o1)C(=O)c1c(O)c(C2CC(C)(N(C)C)C(O)C(C)O2)cc(C2CC(N(C)C)C(O)C(C)O2)c1C3=O (stereo unspecified)
inactive: dose: 0.5 mg/kg/injection, schedule: Q01DX009 (ip), vehicle: Klucel (hydroxypropylcellulose) (HPC) 104 % of control | dose: 31.0 micrograms/kg/injection, schedule: Q01DX009 (ip), vehicle: saline 102 % of control | dose: 39.06 micrograms/kg/injection, schedule: Q01DX009 (ip), vehicle: saline 123 % of control | dose: 62.0 micrograms/kg/injection, schedule: Q01DX009 (ip), vehicle: saline 113 % of control | dose: 156.0 micrograms/kg/injection, schedule: Q01DX009 (ip), vehicle: saline 118 % of control | dose: 250.0 micrograms/kg/injection, schedule: Q01DX009 (ip), vehicle: saline 105 % of control | dose: 312.5 micrograms/kg/injection, schedule: Q01DX009 (ip), vehicle: saline 122 % of control | dose: 625.0 micrograms/kg/injection, schedule: Q01DX009 (ip), vehicle: saline 94 % of control and 100 % of control

CC1CN1P1(N2CC2C)=NP(N2CC2C)(N2CC2C)=NP(N2CC2C)(N2CC2C)=N1 (stereo unspecified)
inactive: dose: 0.78 mg/kg/injection, schedule: Q01DX009 (ip), vehicle: saline 111 % of control | dose: 1.0 mg/kg/injection, schedule: Q01DX009 (ip), vehicle: saline 89 % of control and 99 % of control | dose: 1.0 mg/kg/injection, schedule: Q02DX009 (ip), vehicle: saline 91 % of control and 100 % of control | dose: 1.56 mg/kg/injection, schedule: Q01DX009 (ip), vehicle: saline 104 % of control | dose: 2.0 mg/kg/injection, schedule: Q01DX009 (ip), vehicle: saline 96 % of control and 103 % of control | dose: 2.0 mg/kg/injection, schedule: Q02DX009 (ip), vehicle: saline 100 % of control and 105 % of control and 107 % of control | dose: 3.12 mg/kg/injection, schedule: Q01DX009 (ip), vehicle: saline 105 % of control | dose: 4.0 mg/kg/injection, schedule: Q01DX009 (ip), vehicle: saline 110 % of control and 116 % of control | dose: 4.0 mg/kg/injection, schedule: Q02DX009 (ip), vehicle: saline 99 % of control and 103 % of control and 110 % of control | [2] 97 % of control and 117 % of control | dose: 8.0 mg/kg/injection, schedule: Q01DX009 (ip), vehicle: saline 107 % of control | dose: 8.0 mg/kg/injection, schedule: Q02DX009 (ip), vehicle: saline 108 % of control and 109 % of control and 112 % of control | [4] 116 % of control | dose: 16.0 mg/kg/injection, schedule: Q01DX009 (ip), vehicle: saline 117 % of control | dose: 16.0 mg/kg/injection, schedule: Q02DX009 (ip), vehicle: saline 101 % of control and 112 % of control and 116 % of control | [6] 114 % of control and 118 % of control | dose: 32.0 mg/kg/injection, schedule: Q01DX009 (ip), vehicle: saline 110 % of control | dose: 32.0 mg/kg/injection, schedule: Q02DX009 (ip), vehicle: saline 109 % of control | dose: 64.0 mg/kg/injection, schedule: Q01DX009 (ip), vehicle: saline 105 % of control | dose: 64.0 mg/kg/injection, schedule: Q02DX009 (ip), vehicle: saline 115 % of control

C/C=C/c1cc2c(c(=O)o1)C(=O)[C@@H](O)[C@H](C)O2
inactive: [3] 95 % of control | [5] 90 % of control | [7] 95 % of control | [9] 110 % of control

O=C1CC(=O)C(Br)=C1Br
inactive: dose: 0.08 mg/kg/injection, schedule: Q01DX009 (ip), vehicle: saline with Tween-80 97 % of control | dose: 0.15 mg/kg/injection, schedule: Q01DX009 (ip), vehicle: saline with Tween-80 93 % of control | dose: 0.3 mg/kg/injection, schedule: Q01DX009 (ip), vehicle: saline with Tween-80 95 % of control | dose: 0.37 mg/kg/injection, schedule: Q04DX003 (ip), vehicle: saline with Tween-80 94 % of control | dose: 75.0 micrograms/kg/injection, schedule: Q04DX003 (ip), vehicle: saline with Tween-80 92 % of control | dose: 150.0 micrograms/kg/injection, schedule: Q04DX003 (ip), vehicle: saline with Tween-80 92 % of control | dose: 300.0 micrograms/kg/injection, schedule: Q04DX003 (ip), vehicle: saline with Tween-80 91 % of control

COc1cc2c3c(c4ccc(OC)c(OC)c4c2cc1OC)CN1CCC[C@@H]1C3
inactive: dose: 2.0 mg/kg/injection, schedule: Q01DX009 (ip), vehicle: saline with Tween-80 97 % of control | dose: 4.0 mg/kg/injection, schedule: Q01DX009 (ip), vehicle: saline with Tween-80 89 % of control | dose: 8.0 mg/kg/injection, schedule: Q01DX009 (ip), vehicle: saline with Tween-80 102 % of control and 118 % of control | dose: 16.0 mg/kg/injection, schedule: Q01DX009 (ip), vehicle: saline with Tween-80 106 % of control

COC(=O)C(CCl)NC(C)=O (stereo unspecified)
inactive: [10] 102 % of control | dose: 200.0 mg/kg/injection, schedule: Q01DX009 (ip), vehicle: saline 102 % of control | dose: 400.0 mg/kg/injection, schedule: Q01DX009 (ip), vehicle: saline 117 % of control
